From article PMC10066365, “Nemacol is a small molecule inhibitor of C. elegans vesicular acetylcholine transporter with anthelmintic potential” (Nature Communications, 2023) come the findings set out here.

One may read the Ki as a dissociation constant, usually derived from enzyme kinetics or from competition with a known ligand. One may read the EC50 as the concentration giving half of the maximal effect.

Where “and” joins values, the source holds several entries; their conditions need not be identical. Identical values can stand only once. Like-named read-outs stand apart in the source and are kept apart here.

For assay [1], the system named is Dirofilaria immitis L3/L4. The assay can be described thus: Dirofilaria immitis L3/L4 motility assay (DiroImager, 72 h). The following applies: for % effect (motility), DIROIM L4: Dirofilaria immitis L4.
In assay [2] the target is T1, rat VAChT (Rattus norvegicus, UniProt Q62666).
T1 construct: expressed in transfected cells; host or cells: rat PC12 (PC12 A123.7) cells, stably transfected; shared by Dr. Ali Roghani (Texas Tech University)
T1 sequence (Q62666 1-530): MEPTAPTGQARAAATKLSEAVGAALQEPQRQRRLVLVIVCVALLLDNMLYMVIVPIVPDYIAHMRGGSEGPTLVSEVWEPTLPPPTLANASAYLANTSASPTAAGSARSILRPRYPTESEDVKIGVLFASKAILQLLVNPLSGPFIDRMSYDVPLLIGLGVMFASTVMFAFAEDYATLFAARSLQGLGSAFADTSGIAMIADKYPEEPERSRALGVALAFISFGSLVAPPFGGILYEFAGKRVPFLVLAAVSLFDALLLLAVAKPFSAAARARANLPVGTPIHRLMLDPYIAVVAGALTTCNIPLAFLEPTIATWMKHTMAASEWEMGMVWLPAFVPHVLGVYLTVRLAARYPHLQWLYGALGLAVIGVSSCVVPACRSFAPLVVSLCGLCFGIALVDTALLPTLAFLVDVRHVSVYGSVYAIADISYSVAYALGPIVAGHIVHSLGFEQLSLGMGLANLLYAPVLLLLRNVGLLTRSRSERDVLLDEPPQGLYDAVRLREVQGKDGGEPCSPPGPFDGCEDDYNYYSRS
Description: [3H]Vesamicol competitive radioligand binding, PC12 cells expressing ratVAChT. The following applies: for specific binding in % of total binding (corrected by nonspecific binding NB), mean: rVAChT-PC12, 21°C, 1% DMSO.

Assay [3] concerns C. elegans. Description: C. elegans motor phenotype scoring on solid media (Punc/jerky-unc, coiled, paralyzed), wild-type young adults. The class given is in vivo, Caenorhabditis elegans. The following applies: for any phene, mean % fraction of young adults exhibiting any phenotype (coiled, jerky-Unc or paralyzed) / atypical locomotion (number of animals) / coiled (number of animals) / no phene (number of animals) / paralyzed (number of animals) / any phene (mean % fraction of young adults exhibiting any phenotype: coiled, jerky-Unc or paralyzed): one hour; for any phene, mean % fraction of young adults exhibiting any phenotype (coiled, jerky-Unc or paralyzed) / any phene (mean % fraction of young adults exhibiting any phenotype: coiled, jerky-Unc or paralyzed): mean of three biological replicates; for atypical locomotion (number of animals) / coiled (number of animals) / no phene (number of animals) / paralyzed (number of animals): young adults, 20 animals per trial, single replicate counts; for EC50: Caenorhabditis elegans, any motor phenotype after 1 h on solid media, ± 95% CI, read-out: C. elegans - motor disruption EC50.

In assay [4] the test system is Dirofilaria immitis microfilariae. The assay can be described thus: Dirofilaria immitis microfilariae immobility assay (DiroImager, 72 h). The settings on record: for % effect (motility), DIROIM MF: Dirofilaria immitis microfilariae; for EC50: Dirofilaria immitis, 72 h, read-out: Dirofilaria immitis filariae EC50. The method in brief: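 Motility read after 72 h drug exposure with an image-based high-throughput plate imager, 1% DMSO medium serving as negative control. Missouri-isolate microfilariae, roughly 250 per well, freshly purified and cultured in supplemented RPMI 1640.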

Assay [5] deals with Pristionchus pacificus. The assay can be described thus: Pristionchus pacificus motor disruption dose-response on solid media, 1 h. The settings on record: for mean % any phene (coiled, jerky-Unc or paralyzed): Pristionchus pacificus young adults, mean of three biological replicates; for EC50: Pristionchus pacificus, 1 h, read-out: P. pacificus motor disruption EC50.
Setting [6] is: [3H]Vesamicol displacement, mean, read-out: ratVAChT Ki.
Setting [7] is: conc 3.75, observed at one hour.
Setting [8] is: 3.75uM, third c14 line of each analog.
[9] abbreviates: 15uM, second c14 line of each analog.

For the compound `CC1CCC(N2CCN(c3ccc([N+](=O)[O-])cc3)CC2)CC1` (centres unmarked) [Nemacol-5], the “% effect (motility), DIROIM L4” value is on record as 5% in assay [1] (0.016 µM); 0% in assay [1] (0.08 µM); 0% in assay [1] (0.4 µM); 10% in assay [1] (2 µM); 100% in assay [1] (10 µM); 100% in assay [1] (50 µM). For the same compound, in assay [1] (either D. immitis assay of Fig. 4c), the “activity against D. immitis (EC50)” value is recorded as “low micromolar activity”. The Ki in assay [2] (setting [6]) turned out to be 3.76e-07 M. Further, the “any phene, mean % fraction of young adults exhibiting any phenotype (coiled, jerky-Unc or paralyzed)” value in assay [3] (3.75uM) is 3.333%; in assay [3] (15uM), 97.5%; in assay [3] (60uM), 100%. The “atypical locomotion (number of animals)” value in assay [3] (3.75uM) was 0 and 3 and 1; in assay [3] (15uM), 9 and 12 and 13; in assay [3] (60uM), 1 and 3 and 0 and 2 and 16 and 15. For the same compound, the “coiled (number of animals)” value in assay [3] (3.75uM) was 0; in assay [3] (15uM), 10 and 6 and 5 and 4; in assay [3] (60uM), 16 and 12 and 14 and 13 and 0. The “no phene (number of animals)” value in assay [3] (3.75uM) was 20 and 17 and 19; in assay [3] (15uM), 0 and 3; in assay [3] (60uM), 0. In addition, the “paralyzed (number of animals)” value in assay [3] (3.75uM) is 0; in assay [3] (15uM) it was 1 and 2 and 0 and 3 and 5; in assay [3] (60uM), 3 and 5 and 6 and 4. In addition, the values for the EC50 in assay [3], in assay [4] and in assay [5] were 7.3 ± 3.8 µM, 4.5 µM and 16.5 µM, respectively. In addition, the “% effect (motility), DIROIM MF” value in assay [4] (0.08 µM) was 0%; in assay [4] (0.4 µM), 0%; in assay [4] (2 µM), 20%; in assay [4] (10 µM) it was 80%; in assay [4] (50 µM) it was 100%. Besides, the “mean % any phene (coiled, jerky-Unc or paralyzed)” value is reported as 0% in assay [5] (setting [7]); 15% in assay [5] (conc 15, observed at one hour); 100% in assay [5] (conc 60, observed at one hour).

Consider `O=[N+]([O-])c1ccc(N2CCN(C3CCCCCC3)CC2)cc1` [Nemacol-19], for which the “% effect (motility), DIROIM L4” value turned out to be 0% in assay [1] (2 µM), 0% in assay [1] (10 µM) and 100% in assay [1] (50 µM). Further, the Ki in assay [2] (setting [6]) was found to be 4.62e-07 M. Further, the “any phene (mean % fraction of young adults exhibiting any phenotype: coiled, jerky-Unc or paralyzed)” value is given as 43.3333% in assay [3] (setting [8]) and 97.5% in assay [3] (setting [9]). The concentration for a half-maximal effect (EC50) is 4.1 ± 1.4 µM in assay [3] and 10.7 µM in assay [4]. In addition, the “% effect (motility), DIROIM MF” value in assay [4] (0.016 µM) stood at 0%; in assay [4] (0.08 µM) it was 0%; in assay [4] (0.4 µM), 0%; in assay [4] (2 µM) it was 0%; in assay [4] (10 µM) it was 40%.

For the compound `Cc1ccc(N2CCN(C3CCC(C)C3)CC2)cc1` (centres unmarked) [Nemacol-41], the “% effect (motility), DIROIM L4” value in assay [1] (2 µM) is reported as 5%; in assay [1] (10 µM) it was 5%; in assay [1] (50 µM), 20%. Besides, the Ki stood at 4.82e-07 M in assay [2] ([3H]Vesamicol binding, PC12, experiment 1, read-out: expt 1 Ki (M) vs. rat VAChT (PC12)); 3.76e-07 M in assay [2] ([3H]Vesamicol binding, PC12, experiment 2, read-out: expt 2 Ki (M) vs. rat VAChT (PC12)); 4.29e-07 M in assay [2] ([3H]Vesamicol binding, rat VAChT (PC12), mean of 2-3 experiments, read-out: mean Ki). The “any phene (mean % fraction of young adults exhibiting any phenotype: coiled, jerky-Unc or paralyzed)” value in assay [3] (setting [8]) is recorded as 58.3333%; in assay [3] (setting [9]) it was 98.3333%; in assay [3] (60uM, first c14 line of each analog), 100%. The EC50 in assay [3] came out at 3.3 ± 1.4 µM; in assay [5], 10.7 ± 1.2 µM. Besides, the “% effect (motility), DIROIM MF” value in assay [4] (0.016 µM), in assay [4] (0.08 µM), in assay [4] (0.4 µM), in assay [4] (2 µM) and in assay [4] (10 µM) was 0% throughout. The “mean % any phene (coiled, jerky-Unc or paralyzed)” value in assay [5] (setting [7]) was 9.167%; in assay [5] (conc 15, observed at one hour) it was 67.5%; in assay [5] (conc 60, observed at one hour) it was 100%.

In the case of `O[C@@H]1CCCC[C@H]1N1CCC(c2ccccc2)CC1` [minus Vesamicol], the “specific binding in % of total binding (corrected by nonspecific binding NB), mean” value (from here on “specific binding in % of total binding”) came out at 0.0405% in assay [2] (competitor 1.00E-05 M, experiment 2019-10-30, 2.92E-09 M 3H-vesamicol, 120 min); 1.18e-15% in assay [2] (competitor 1.00E-05 M, experiment 2019-11-21, 2.20E-09 M 3H-vesamicol, 90 min); 5% in assay [2] (competitor 1.00E-06 M, experiment 2019-10-30, 2.92E-09 M 3H-vesamicol, 120 min); 4% in assay [2] (competitor 1.00E-06 M, experiment 2019-11-21, 2.20E-09 M 3H-vesamicol, 90 min); 29% in assay [2] (competitor 1.00E-07 M, experiment 2019-10-30, 2.92E-09 M 3H-vesamicol, 120 min); 28% in assay [2] (competitor 1.00E-07 M, experiment 2019-11-21, 2.20E-09 M 3H-vesamicol, 90 min). The “specific binding in % of total binding” value in assay [2] (competitor 1.00E-08 M, experiment 2019-10-30, 2.92E-09 M 3H-vesamicol, 120 min) is on record as 79%; in assay [2] (competitor 1.00E-08 M, experiment 2019-11-21, 2.20E-09 M 3H-vesamicol, 90 min) it was 82%; in assay [2] (competitor 1.00E-09 M, experiment 2019-10-30, 2.92E-09 M 3H-vesamicol, 120 min), 94%; in assay [2] (competitor 1.00E-09 M, experiment 2019-11-21, 2.20E-09 M 3H-vesamicol, 90 min) it was 98%; in assay [2] (competitor 1.00E-10 M, experiment 2019-10-30, 2.92E-09 M 3H-vesamicol, 120 min) it was 97%; in assay [2] (competitor 1.00E-10 M, experiment 2019-11-21, 2.20E-09 M 3H-vesamicol, 90 min), 98%. Besides, the “specific binding in % of total binding” value in assay [2] (competitor 1.00E-11 M, experiment 2019-10-30, 2.92E-09 M 3H-vesamicol, 120 min) came out at 95%; in assay [2] (competitor 1.00E-11 M, experiment 2019-11-21, 2.20E-09 M 3H-vesamicol, 90 min) it was 96%.
